{"source": "patent US20230233500A1", "about": "“Gasdermin D (GSDMD) Succination for the Treatment of Inflammatory Disease” (University of Massachusetts, priority 2020, published 2023)", "key": {"[1]": {"biological_target": "T1, caspase 1-GSDMD interactions (Mus musculus, UniProt Q9D8T2)", "T1 construct": "Immunoblots of casplp20 and GSDMD in BMDMs (I); endogenous in cells; host or cells: primary mouse BMDMs", "T1 sequence (Q9D8T2 1-487)": "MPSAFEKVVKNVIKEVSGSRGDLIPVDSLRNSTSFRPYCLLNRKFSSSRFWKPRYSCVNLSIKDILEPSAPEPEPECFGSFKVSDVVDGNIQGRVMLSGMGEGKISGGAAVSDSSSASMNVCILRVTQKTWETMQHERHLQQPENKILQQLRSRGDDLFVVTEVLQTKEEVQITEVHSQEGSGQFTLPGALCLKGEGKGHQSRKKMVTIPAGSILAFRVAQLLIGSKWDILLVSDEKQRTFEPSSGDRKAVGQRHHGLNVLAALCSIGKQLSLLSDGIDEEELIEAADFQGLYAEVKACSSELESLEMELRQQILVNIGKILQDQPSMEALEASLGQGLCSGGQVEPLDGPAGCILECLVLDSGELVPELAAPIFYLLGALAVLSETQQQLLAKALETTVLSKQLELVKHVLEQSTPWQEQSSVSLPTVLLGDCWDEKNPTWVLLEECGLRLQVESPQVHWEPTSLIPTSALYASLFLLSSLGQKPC", "assay": "Caspase 1-GSDMD interaction and caspase 1 processing in BMDMs", "assay_type": "cell-based", "source_text": "FIGS. 2A-J. Succination of GSDMD inhibits pyroptosis. Immunoblot of GSDMD in streptavidin pulldown from clicked lysates treated as indicated (A-B). Representative MS spectra of 2-monomethyl and 2-dimethylsuccination of GSDMD immunoprecipitated from fumarate treated BMDMs (C-D). Immunoblot of GSDMD in clicked lysates from transfected HEK293T. Cell death of HEK293T transfected as indicated (F-H). Immunoblots of casplp20 and GSDMD in BMDMs (I). Immunoblots of an in vitro binding assay of succinated and non-succinated GSDMD incubated with caspase 1 beads (J). A, B, F, J, […] representative images from three independent experiments. C, D, E, representative mass spec spectra from two independent experiments. H, I pooled data from three independent experiments. ***, P<0.001 (One-way anova). Error bars show means±SEM.\nPrimary BMDMs from WT or GsdmD^−/− mice were cultured in 12-well plates (1×10^6 cells per ml; 1 ml) or 10 cm dishes (2×10^6 cells per ml; 10 ml). HEK293T cells (2.5×10^5 cells per ml; 3 ml) were cultured in 6-well plates and transfected with FLAG-tagged GSDMD constructs where indicated. For cell lysate analysis cells were lysed directly in 1× Lamelli sample buffer. […] Samples were resolved by SDS-PAGE and stained using simply blue safe stain or transferred to nitrocellulose membranes and analyzed by immunoblot. […]"}, "GSDMD": {"biological_target": "T2, GSDMD (Mus musculus, UniProt Q9D8T2)", "T2 construct": "We also immunoprecipitated GSDMD from fumarate treated BMDMs; endogenous in cells; host or cells: primary mouse BMDMs", "T2 sequence (Q9D8T2 1-487)": "T1 sequence (Q9D8T2 1-487)", "assay": "Tandem MS of GSDMD immunoprecipitated from treated BMDMs", "assay_type": "cell-based", "conditions": "GSDMD immunoprecipitated from fumarate treated BMDMs"}, "BMDMs": {"system": "BMDMs", "assay": "Pyroptosis in BMDMs after transfected LPS, Salmonella infection or poly (dA:dT)", "assay_type": "cell-based, mouse", "experimental": "FIGS. 5A-G. Fumarate inhibits pyroptosis. (A) SYTOX Orange and Hoechst stained WT BMDMs treated with LPS for 2 hours, DMSO (vehicle) or fumarate (25 μM) for 1 hour and nigericin for 6 hours. (B) LDH assay conditioned medium from WT BMDMs treated with LPS for 3 hours, nigericin for the indicated times and DMSO (vehicle) or fumarate (25 μM) 15 minutes after each nigericin (10 μM) timepoint. (C) Immunoblot analysis of GSDMD in BMDMs treated as in […]. (D-E) LDH (D) and immunoblot analysis of GSDMD and β-actin in lysates (E) from WT BMDMs treated with DMSO (vehicle) or fumarate ([…]) for 1 hour followed by salmonella infection (MOI 10) for 6 hours. (F-G) LDH (F) and immunoblot analysis of GSDMD and β-actin in lysates (G) from WT BMDMs primed with LPS for 2 hours, followed by treatment with fumarate (25 μM) transfection with Poly (dA:dT) (1 μg). A, C, E, G are representative of 3 independent experiments. B, D, F are pooled data from 3 independent experiments. ***, P<0.001, ****, P<0.00001 (Two-way ANOVA). Error bars show means±SEM.\nCells were plated, treated and incubated in phenol red free medium. Following treatment medium was collected and assessed for LDH release using the CytoTox96 non-radioactive cytotoxicity assay (Promega) as per manufacturer's instructions. Kinetic cell death assays were performed using SytoxOrange and the Biotek Cytation5.\nCells were primed with LPS (100 ng/ml) from Escherichia coli serotype EH100 (ra) TLRgrade for 3 h followed by stimulation with the inflammasome activator Nigericin ([…]) for 1 h. For noncanonical inflammasome activation, cells were primed with […] Pam3CSK4 (Invivogen) for 2 h, followed by transfection of LPS (2 μg/ml) using Lipofectamine 2000 for 16 hours."}}, "note": "“Also recorded” adds a separate entry of the source. Counter-ions that a name gives are not always drawn.", "data": [{"smiles": "COC(=O)/C=C/C(=O)OC", "note": "[Fumarate, Dimethyl fumarate]", "values": [{"measurement": "processing of caspase 1", "setting": "[1]; casp1 p20 immunoblot", "value": "not impaired"}, {"measurement": "caspase 1-GSDMD interactions", "setting": "[1]; immunoblots", "value": "completely blocked"}, {"measurement": "2-monomethyl and 2-dimethyl succination sites of GSDMD in cells", "setting": "GSDMD", "value": "Cys^192; also recorded: Cys^57; also recorded: Cys^77"}, {"measurement": "inhibitory effect on pyroptosis after poly (dA:dT)", "setting": "BMDMs; LPS primed 2 hours, fumarate 25 μM, LDH and GSDMD immunoblot", "value": "inhibitory effect"}, {"measurement": "inhibitory effect on pyroptosis after Salmonella infection", "setting": "BMDMs; fumarate 25 μM 1 hour, MOI 10, 6 hours, LDH and GSDMD immunoblot", "value": "inhibitory effect"}, {"measurement": "inhibitory effect on pyroptosis after transfected LPS", "setting": "BMDMs; noncanonical inflammasome", "value": "inhibitory effect"}]}]}
